Assays:
[1] = Ratio of drug concentration in male Dunkin Hartley guinea pig lung to plasma at 10 mg/kg, po measured after 4 hrs by LC-MS/MS analysis; type: ADME, organism-based, Cavia porcellus
[2] = AUClast in male Dunkin Hartley guinea pig at 10 mg/kg, po by LC-MS/MS analysis; type: ADME, organism-based, Cavia porcellus; settings: in vivo
[3] = Drug concentration in male Dunkin Hartley guinea pig brain at 10 mg/kg, po measured after 1 hrs by LC-MS/MS analysis; type: ADME, organism-based, Cavia porcellus; settings: read-out: Ct
[4] = Half-life in male Dunkin Hartley guinea pig at 10 mg/kg, iv by LC-MS/MS analysis; type: ADME, organism-based, Cavia porcellus; settings: in vivo
[5] = AUClast in male Dunkin Hartley guinea pig at 10 mg/kg, iv by LC-MS/MS analysis; type: ADME, organism-based, Cavia porcellus; settings: in vivo
[6] = Aqueous solubility of compound in pure distilled water at >50 mg/ml; type: physicochemical; settings: buffer
[7] = Ratio of drug concentration in male Dunkin Hartley guinea pig brain to plasma at 10 mg/kg, po measured after 4 hrs by LC-MS/MS analysis; type: ADME, organism-based, Cavia porcellus; settings: read-out: BPR
[8] = system: Cavia porcellus; assay: Antitussive activity in citric acid-induced male Dunkin Hartley guinea pig cough model assessed as reduction in cough number at 50 mg/kg, po pretreated with compound for 4 hrs followed by citric acid administration and measured after 10 mins relative to control; type: functional; design: scale not given: the % may be the effect or the level left; settings: time 250 min, 4.167 h
[9] = Toxicity in male spontaneous hypertensive rat model at 100 mg/kg, po; type: organism-based; settings: in vivo
[10] = Half-life in male Sprague-Dawley rat at 10 mg/kg, po by LC-MS/MS analysis; type: ADME, organism-based; settings: in vivo
[11] = Drug concentration in male Dunkin Hartley guinea pig brain at 10 mg/kg, po measured after 4 hrs by LC-MS/MS analysis; type: ADME, organism-based, Cavia porcellus; settings: read-out: Ct
[12] = system: Rattus norvegicus; assay: Reversal of urinary incontinence in male spontaneous hypertensive rat model assessed as decrease in urine volume at 100 mg/kg, po measured after 3 hrs relative to control; type: functional; design: scale not given: the % may be the effect or the level left
[13] = Drug concentration in male Dunkin Hartley guinea pig lung at 10 mg/kg, po measured after 4 hrs by LC-MS/MS analysis; type: ADME, organism-based, Cavia porcellus; settings: read-out: Ct
[14] = Tmax in male Dunkin Hartley guinea pig at 10 mg/kg, po by LC-MS/MS analysis; type: ADME, organism-based, Cavia porcellus; settings: in vivo
[15] = Drug concentration in male Dunkin Hartley guinea pig blood at 10 mg/kg, po measured after 4 hrs by LC-MS/MS analysis; type: ADME, organism-based, Cavia porcellus; settings: read-out: Ct
[16] = Ratio of drug concentration in male Dunkin Hartley guinea pig brain to plasma at 10 mg/kg, po measured after 1 hrs by LC-MS/MS analysis; type: ADME, organism-based, Cavia porcellus; settings: read-out: BPR
[17] = Aqueous solubility of compound in PBS at >50 mg/ml; type: physicochemical; settings: buffer
[18] = system: Cavia porcellus; assay: Antitussive activity in citric acid-induced male Dunkin Hartley guinea pig cough model assessed as reduction in cough number pretreated orally with compound for 4 hrs followed by citric acid administration and measured after 10 mins; type: functional; settings: 4.167 h, route po, time 250 min
[19] = AUClast in male Sprague-Dawley rat at 10 mg/kg, po by LC-MS/MS analysis; type: ADME, organism-based; settings: in vivo
[20] = Oral bioavailability in male Dunkin Hartley guinea pig at 10 mg/kg by LC-MS/MS analysis; type: ADME, organism-based, Cavia porcellus; settings: in vivo
[21] = Clearance in male Dunkin Hartley guinea pig at 10 mg/kg, iv by LC-MS/MS analysis; type: ADME, organism-based, Cavia porcellus; settings: in vivo
[22] = Drug concentration in male Dunkin Hartley guinea pig blood at 10 mg/kg, po measured after 1 hrs by LC-MS/MS analysis; type: ADME, organism-based, Cavia porcellus; settings: read-out: Ct
[23] = system: Cavia porcellus; assay: Antitussive activity in citric acid-induced male Dunkin Hartley guinea pig cough model assessed as reduction in cough number at 8 mg/kg, po pretreated with compound for 4 hrs followed by citric acid administration and measured after 10 mins relative to control; type: functional; design: scale not given: the % may be the effect or the level left; settings: time 250 min, 4.167 h
[24] = Cmax in male Sprague-Dawley rat at 10 mg/kg, po by LC-MS/MS analysis; type: ADME, organism-based; settings: in vivo
[25] = system: Cavia porcellus; assay: Antitussive activity in citric acid-induced male Dunkin Hartley guinea pig cough model assessed as reduction in cough number at 20 mg/kg, po pretreated with compound for 4 hrs followed by citric acid administration and measured after 10 mins relative to control; type: functional; design: scale not given: the % may be the effect or the level left; settings: time 250 min, 4.167 h
[26] = Cmax in male Dunkin Hartley guinea pig at 10 mg/kg, po by LC-MS/MS analysis; type: ADME, organism-based, Cavia porcellus; settings: in vivo
[27] = Half-life in male Dunkin Hartley guinea pig at 10 mg/kg, po by LC-MS/MS analysis; type: ADME, organism-based, Cavia porcellus; settings: in vivo
[28] = system: Rattus norvegicus; assay: Reversal of urinary incontinence in male spontaneous hypertensive rat model assessed as decrease in urine frequency at 100 mg/kg, po measured after 3 hrs relative to control; type: functional; design: scale not given: the % may be the effect or the level left
[29] = Ratio of drug concentration in male Dunkin Hartley guinea pig lung to plasma at 10 mg/kg, po measured after 1 hrs by LC-MS/MS analysis; type: ADME, organism-based, Cavia porcellus
[30] = Volume of distribution at steady state in male Dunkin Hartley guinea pig at 10 mg/kg, iv by LC-MS/MS analysis; type: ADME, organism-based, Cavia porcellus; settings: in vivo, read-out: Vdss
[31] = Drug concentration in male Dunkin Hartley guinea pig lung at 10 mg/kg, po measured after 1 hrs by LC-MS/MS analysis; type: ADME, organism-based, Cavia porcellus; settings: read-out: Ct
[32] = Tmax in male Sprague-Dawley rat at 10 mg/kg, po by LC-MS/MS analysis; type: ADME, organism-based; settings: in vivo
[33] = molecular target: Calcium-activated potassium channel subunit alpha-1 (Homo sapiens, UniProt Q12791, G803D/N806K); assay: Activation of hyperactive human BKca channel G803D/N806K mutant transfected in human AD-293 cells incubated for 20 to 30 mins by Flexstation3 multimode microplate reader analysis; type: cell-based
Calcium-activated potassium channel subunit alpha-1 (Homo sapiens, UniProt Q12791, G803D/N806K), sequence (Q12791 whole entry, looked up, stated change not applied): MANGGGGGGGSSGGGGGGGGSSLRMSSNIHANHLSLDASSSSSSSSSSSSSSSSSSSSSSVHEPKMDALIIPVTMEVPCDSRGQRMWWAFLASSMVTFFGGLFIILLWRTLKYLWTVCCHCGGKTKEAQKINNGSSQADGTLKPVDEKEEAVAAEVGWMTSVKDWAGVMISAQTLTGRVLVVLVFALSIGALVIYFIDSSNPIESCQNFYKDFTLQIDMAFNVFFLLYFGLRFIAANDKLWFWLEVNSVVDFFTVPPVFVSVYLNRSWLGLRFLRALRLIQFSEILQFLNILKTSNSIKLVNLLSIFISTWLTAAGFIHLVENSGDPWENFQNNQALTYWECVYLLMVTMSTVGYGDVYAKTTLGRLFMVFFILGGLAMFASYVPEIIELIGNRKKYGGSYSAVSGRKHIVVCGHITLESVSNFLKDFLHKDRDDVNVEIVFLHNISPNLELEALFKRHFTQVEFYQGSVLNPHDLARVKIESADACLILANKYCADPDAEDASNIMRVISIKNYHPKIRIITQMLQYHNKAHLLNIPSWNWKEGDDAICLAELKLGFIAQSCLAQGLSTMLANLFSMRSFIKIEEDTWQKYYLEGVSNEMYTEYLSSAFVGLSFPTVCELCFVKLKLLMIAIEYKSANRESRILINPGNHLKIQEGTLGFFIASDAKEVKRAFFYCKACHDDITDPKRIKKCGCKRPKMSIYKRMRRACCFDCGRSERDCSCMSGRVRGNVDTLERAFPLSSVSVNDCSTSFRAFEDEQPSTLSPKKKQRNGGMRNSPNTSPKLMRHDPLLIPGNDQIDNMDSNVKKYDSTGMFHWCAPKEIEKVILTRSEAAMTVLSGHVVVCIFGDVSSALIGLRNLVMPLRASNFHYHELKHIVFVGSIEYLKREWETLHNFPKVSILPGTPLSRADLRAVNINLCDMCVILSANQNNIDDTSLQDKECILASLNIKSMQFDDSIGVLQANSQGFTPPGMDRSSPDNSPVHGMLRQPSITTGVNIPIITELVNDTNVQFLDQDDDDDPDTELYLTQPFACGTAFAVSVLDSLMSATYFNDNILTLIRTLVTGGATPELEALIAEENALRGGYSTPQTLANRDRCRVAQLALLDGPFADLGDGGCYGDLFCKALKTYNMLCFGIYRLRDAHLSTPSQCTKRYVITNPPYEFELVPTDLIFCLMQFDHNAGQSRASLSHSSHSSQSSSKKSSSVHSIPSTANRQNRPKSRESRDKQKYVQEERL

[34] = molecular target: T1, Calcium-activated potassium channel subunit alpha-1 (Homo sapiens, UniProt Q12791); assay: Activation of human KCa1.1 by patch clamp method
T1 sequence (Q12791 whole entry): as the sequence (Q12791 whole entry, looked up, stated change not applied) above

[35] = molecular target: T1, Calcium-activated potassium channel subunit alpha-1; assay: Activation of BKca channel (unknown origin) by cell based method
[36] = system: Calcium-activated potassium channel subunit alpha-1 (Homo sapiens), Q12791 [UNDEFINED MUTATION]; assay: (§1) Activation of hyperactive human BKca channel G803D/N806K mutant transfected in human AD-293 cells assessed as fold change in maximum relative fluorescence value at 5 uM preincubated for 15 mins followed by Tl+ stimulus buffer addition and measured after 80 sec by Flexstation3 multimode microplate reader analysis; type: cell-based; settings: filed as opener, time 980.0 sec
Calcium-activated potassium channel subunit alpha-1 (Homo sapiens), Q12791 [UNDEFINED MUTATION], sequence (Q12791 whole entry, looked up, stated change not applied): as above

[37] = system: Calcium-activated potassium channel subunit alpha-1 (Homo sapiens), Q12791 [UNDEFINED MUTATION]; assay: as §1, with “as” for “as fold change in”, “analysis relative to control” for “analysis”; type: cell-based; settings: time 980.0 sec
[38] = molecular target: T1, Calcium-activated potassium channel subunit alpha-1; assay: Activation of BKca channel (unknown origin) by cell-based fluorescence assay
[39] = Half-life in male Sprague-Dawley rat at 10 mg/kg, iv by LC-MS/MS analysis; type: ADME, organism-based; settings: in vivo
[40] = system: Rattus norvegicus; assay: Reversal of urinary incontinence in male spontaneous hypertensive rat model assessed as decrease in urine frequency at 0.3 mg/kg, ip measured after 3 hrs relative to control; type: functional; design: scale not given: the % may be the effect or the level left
[41] = Oral bioavailability in male Sprague-Dawley rat at 10 mg/kg by LC-MS/MS analysis; type: ADME, organism-based; settings: in vivo
[42] = system: Rattus norvegicus; assay: Reversal of urinary incontinence in male spontaneous hypertensive rat model assessed as decrease in urine frequency at 0.1 mg/kg, ip measured after 3 hrs relative to control; type: functional; design: scale not given: the % may be the effect or the level left
[43] = AUClast in male Sprague-Dawley rat at 10 mg/kg, iv by LC-MS/MS analysis; type: ADME, organism-based; settings: in vivo
[44] = Volume of distribution at steady state in male Sprague-Dawley rat at 10 mg/kg, iv by LC-MS/MS analysis; type: ADME, organism-based; settings: in vivo, read-out: Vdss
[45] = system: Rattus norvegicus; assay: Reversal of urinary incontinence in male spontaneous hypertensive rat model assessed as decrease in total urine volume at 1 mg/kg, ip measured after 3 hrs relative to control; type: functional; design: scale not given: the % may be the effect or the level left
[46] = Clearance in male Sprague-Dawley rat at 10 mg/kg, iv by LC-MS/MS analysis; type: ADME, organism-based; settings: in vivo

In the case of Cl.Cl.Oc1cc(NCCCCCN2CCOCC2)ccc1Oc1c(F)c(F)c(C(F)(F)F)c(F)c1F, the Kp at 4 h [1] is reported as 587, the AUC(0-t) [2] is reported as 188 ng·h/mL and the concentration at 1 h [3] is reported as 424 ng/g. For the same compound, the half-life [4] was 4 h, the AUC(0-t) [5] was 1800 ng·h/mL and the solubility [6] was “soluble”. For the same compound, the Kp at 4 h [7] was 18, the Activity [8] was 69.3% and the Activity [9] was “Non-toxic”. For the same compound, the half-life [10] was 7.1 h, the concentration at 4 h [11] was 414 ng/g and the Activity [12] was 62.6%. For the same compound, the concentration at 4 h [13] was 13500 ng/g, the Tmax [14] was 1.8 h and the concentration at 4 h [15] was 23 ng/mL. For the same compound, the Kp at 1 h [16] was 15, the solubility [17] was “soluble” and the ED50 [18] was 11.8 mg/kg. The AUC(0-t) [19] was 844 ng·h/mL, the bioavailability [20] was 10.5% and the clearance [21] was 93.3 mL/min/kg. The concentration at 1 h [22] was 28 ng/mL, the Activity [23] was 25.4% and the Cmax [24] was 283 ng/mL. The Activity [25] was 54.4%, the Cmax [26] was 31.8 ng/mL and the half-life [27] was 4.7 h. For the same compound, the Activity [28] was 61.4%, the Kp at 1 h [29] was 291 and the Vd [30] was 18.1 L/kg. It also gave a concentration at 1 h [31] of 8160 ng/g and a Tmax [32] of 0.4 h.
For Oc1ccc(-c2onc(C(F)(F)F)c2-c2ccc(Cl)cc2)c(O)c1, the EC50 [33] was 3.9 µM.
In the case of FC(F)(F)c1cc(NC(=S)Nc2ccc(Br)cc2-c2nnn[nH]2)cc(C(F)(F)F)c1, the EC50 [34] is reported as 0.4 µM, the EC50 [35] is reported as 7 µM and the fold change (FC) [36] is reported as 2.3. It also gave an Activity [37] of 14.4% and an EC50 [38] of 7 µM.
With Cl.Nc1ccc(Oc2c(F)c(F)c(C(F)(F)F)c(F)c2F)c(O)c1 the half-life [39] was 4.5 h, the Activity [40] was 65% and the bioavailability [41] was 23.5%. For the same compound, the Activity [42] was 43%, the AUC(0-t) [43] was 1450 ng·h/mL and the half-life [10] was 3.9 h. It also gave a Vd [44] of 13.2 L/kg, an AUC(0-t) [19] of 344 ng·h/mL and an Activity [45] of 48.5%. The Cmax [24] was 61.5 ng/mL, the clearance [46] was 115 mL/min/kg and the Tmax [32] was 4.2 h.
